Measurements from patent US20080287469A1, “Phosphoinositide 3-Kinase Inhibitors for Inhibiting Leukocyte Accumulation” (priority 2005, published 2008).

How the values were obtained:
p110δ [1] = molecular target: T1, p110δ (Mus musculus, UniProt O35904); test: Immunoprecipitation and PI3K activity assay: p110δ from spleen extracts of WT mice; format: biochemical; details: 10 μM; vs vehicle control
T1 construct: this enzyme isolated from spleen extracts of WT animals; from tissue; host or cells: mouse spleen
Experimental: Spleens from WT mice were pulverized in liquid nitrogen cooled mortar and solubilized in PI3-kinase lysis buffer (50 mM Tris-HCl (pH 7.4), 1% Triton X-100, 150 mM NaCl, 1 mM EDTA and a cocktail of inhibitors to serine and cysteine proteases (Complete™, Mini, Roch Applied Science, IN). HUVEC lysates were prepared as described. (Puri et al., Blood, 103:3448-3456 (2004)) Lysates were precleared with protein A-Sepharose and aliquots of the supernatants were incubated with antibodies specific for p110δ and p110γ, or control antibody for 1 hour at 4° C., followed by addition of protein A-Sepharose for 2 hours at 4° C. Precipitates were washed once with lysis buffer, twice with 0.1 M Tris-HCl, pH 7.4; 5 mM LiCl; and 0.1 mM sodium orthovanadate and once with PI 3-kinase buffer containing 20 mM Hepes, pH 7.4, 10 μM ATP, 5 mM MgCl2, plus 50 μg/ml horse IgG (Pierce, Rockford, Ill.). Lipid kinase activity was determined as previously described. (Sadhu et al., J. Immunol., 170:2647-2654 (2003)) The radioactive product PIP3 was captured onto a 96-well polyvinylidene difluoride filter plate (Millipore, Billerica, Mass.) and the bound radioactivity was quantitated with Microbeta Liquid Scintillation Counter (PerkinElmer Life Sciences, Boston, Mass.).

[2] = system: neutrophils on inflamed venular endothelium (E-selectin-dependent adhesion); test: Intravital microscopy of TNFα-stimulated cremaster muscle venules, P-selectin−/− mice; format: in vivo; details: oral, one hour prior to TNFα-stimulation, vs vehicle
Experimental: The surgical preparation of animals for all in vivo studies was performed using standard techniques. (Puri et al., Blood, 103:3448-3456 (2004)) An inflammatory response in the cremaster muscle (CM) venules of mice was induced by an intrascrotal injection of recombinant murine TNFα (20 ng/mouse). The tissue was surgically exposed 3 h post-cytokine stimulation and viewed on an intravital microscope (IV-500; Mikron instruments). GFP-expressing cells were visualized in the microcirculation through X^60 water immersion objective (Zeiss) using an intensified camera (VE1000SIT; Dage mti) and epifluorescence illumination. Rolling fraction was defined as the percentage of cells that interact with a given region of venule as compared to the total number of cells that enter that vessel (interacting and non-interacting) during the same time period. Venular shear rates were determined from optical Doppler velocimeter measurements of centerline erythrocyte velocity. Video images were recorded using a Hi8 VCR (Sony) and analysis of performed using a PC-based image analysis system.
Although P-selectin expressed on endothelium predominates in the initial capture of circulating neutrophils in acute tissue injury, it is E-selectin that accounts for the phenotypically slow rolling movements of these cells in microvessels of TNFα-stimulated CM. […]

[3] = Plasma concentration of the compound after oral administration; format: in vivo, mice; details: 4 h post-oral administration; P-selectin−/− mice
Experimental: Animals received a single oral dose of either a compound in accordance with the invention (25 mg/kg for mice and 20 or 40 mg/kg for rats) or vehicle (PEG-400). Blood samples were subsequently drawn at indicated time points and plasma concentration of the compound determined after liquid-liquid extraction by LC/MS. The lower quantification limit was 50 ng/ml. Plasma samples from control animals (vehicle alone) were used as the blank control.

p110δ [4] = molecular target: p110δ (Homo sapiens, UniProt O00329); details: cited from earlier work
E-selectin = test: Flow cytometric analysis of E-selectin expression on TNFα-stimulated HUVECs; details: TNFα 4 hr; IC87114 2 to 50 μM, LY294002 10 μM, Bay 11-7082 10 μM
[5] = system: TNFα-stimulated HUVEC monolayers; test: Laminar flow assay: neutrophil capture by TNFα-stimulated HUVEC monolayers; format: cell-based, human; details: wall shear rate 200 s^−1; IC87114 2 μM, LY294002 10 μM, Bay 11-7082 10 μM, CL3 50 μg/ml
Experimental: Peripheral blood neutrophils were isolated from healthy volunteers and infused over the endothelial cell monolayer that was incorporated into a parallel plate flow chamber (GlycoTech) for 5 min at a shear rate of 200 s^−1. (Puri et al., Blood, 103:3448-3456 (2004)) Approval was obtained from the Washington University institutional review board for these studies. Informed consent was provided according to the Declaration of Helsinki. Neutrophil-endothelial cell interactions were recorded and analyzed as previously described. (Puri et al., Blood, 103:3448-3456 (2004)) For E-selectin blockade, HUVECs were incubated with mAb CL3 (50 μg/ml, 15 min) prior to adhesion assays.

Sequence of p110δ (Homo sapiens, UniProt O00329) (O00329 whole entry, species assumed): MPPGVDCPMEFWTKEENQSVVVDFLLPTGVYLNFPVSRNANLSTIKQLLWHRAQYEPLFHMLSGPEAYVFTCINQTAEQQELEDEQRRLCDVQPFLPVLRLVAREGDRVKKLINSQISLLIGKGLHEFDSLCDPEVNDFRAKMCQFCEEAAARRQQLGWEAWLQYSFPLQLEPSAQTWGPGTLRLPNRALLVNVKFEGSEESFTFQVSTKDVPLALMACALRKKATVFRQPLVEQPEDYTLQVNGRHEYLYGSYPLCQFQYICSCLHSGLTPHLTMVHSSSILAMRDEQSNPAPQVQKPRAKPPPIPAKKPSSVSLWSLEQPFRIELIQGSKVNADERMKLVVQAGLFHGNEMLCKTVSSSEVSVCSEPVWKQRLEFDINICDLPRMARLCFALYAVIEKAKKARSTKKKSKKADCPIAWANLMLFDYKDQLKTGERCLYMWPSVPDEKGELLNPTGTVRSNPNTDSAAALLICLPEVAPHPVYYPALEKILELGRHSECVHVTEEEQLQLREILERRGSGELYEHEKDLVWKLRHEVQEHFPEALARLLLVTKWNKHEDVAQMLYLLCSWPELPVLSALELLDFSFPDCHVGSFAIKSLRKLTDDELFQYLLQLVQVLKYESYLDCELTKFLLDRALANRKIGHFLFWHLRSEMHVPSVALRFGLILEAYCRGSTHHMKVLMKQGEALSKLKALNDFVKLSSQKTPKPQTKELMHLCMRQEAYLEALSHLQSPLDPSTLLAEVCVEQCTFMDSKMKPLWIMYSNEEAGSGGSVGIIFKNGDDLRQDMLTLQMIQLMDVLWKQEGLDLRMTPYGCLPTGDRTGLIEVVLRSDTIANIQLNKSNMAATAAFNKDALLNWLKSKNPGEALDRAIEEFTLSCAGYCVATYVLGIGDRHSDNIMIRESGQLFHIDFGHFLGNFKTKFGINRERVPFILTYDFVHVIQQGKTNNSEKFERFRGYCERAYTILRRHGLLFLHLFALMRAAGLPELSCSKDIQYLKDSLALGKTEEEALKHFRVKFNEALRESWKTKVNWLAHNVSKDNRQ
Sequence of p110δ (Homo sapiens, UniProt O00329) (P27986 whole entry partner, species assumed): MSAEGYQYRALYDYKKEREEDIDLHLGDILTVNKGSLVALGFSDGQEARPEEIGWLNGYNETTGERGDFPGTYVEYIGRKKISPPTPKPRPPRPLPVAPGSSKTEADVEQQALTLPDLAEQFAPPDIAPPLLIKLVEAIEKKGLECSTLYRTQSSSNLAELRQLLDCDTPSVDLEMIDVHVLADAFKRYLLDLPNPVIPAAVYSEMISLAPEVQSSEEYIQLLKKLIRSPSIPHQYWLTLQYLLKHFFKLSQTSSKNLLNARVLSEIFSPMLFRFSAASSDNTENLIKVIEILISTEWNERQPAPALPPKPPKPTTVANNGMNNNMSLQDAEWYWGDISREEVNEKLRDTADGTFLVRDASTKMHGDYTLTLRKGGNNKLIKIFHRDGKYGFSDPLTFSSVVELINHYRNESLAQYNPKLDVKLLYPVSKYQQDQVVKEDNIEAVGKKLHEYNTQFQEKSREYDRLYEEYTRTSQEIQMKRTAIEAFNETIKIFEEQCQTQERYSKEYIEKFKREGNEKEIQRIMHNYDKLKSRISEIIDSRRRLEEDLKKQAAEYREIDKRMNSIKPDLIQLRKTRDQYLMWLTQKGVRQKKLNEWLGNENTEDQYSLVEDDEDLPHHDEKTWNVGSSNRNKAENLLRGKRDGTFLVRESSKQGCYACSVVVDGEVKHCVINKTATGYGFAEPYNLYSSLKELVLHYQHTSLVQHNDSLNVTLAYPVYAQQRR
T1 sequence (O35904 whole entry): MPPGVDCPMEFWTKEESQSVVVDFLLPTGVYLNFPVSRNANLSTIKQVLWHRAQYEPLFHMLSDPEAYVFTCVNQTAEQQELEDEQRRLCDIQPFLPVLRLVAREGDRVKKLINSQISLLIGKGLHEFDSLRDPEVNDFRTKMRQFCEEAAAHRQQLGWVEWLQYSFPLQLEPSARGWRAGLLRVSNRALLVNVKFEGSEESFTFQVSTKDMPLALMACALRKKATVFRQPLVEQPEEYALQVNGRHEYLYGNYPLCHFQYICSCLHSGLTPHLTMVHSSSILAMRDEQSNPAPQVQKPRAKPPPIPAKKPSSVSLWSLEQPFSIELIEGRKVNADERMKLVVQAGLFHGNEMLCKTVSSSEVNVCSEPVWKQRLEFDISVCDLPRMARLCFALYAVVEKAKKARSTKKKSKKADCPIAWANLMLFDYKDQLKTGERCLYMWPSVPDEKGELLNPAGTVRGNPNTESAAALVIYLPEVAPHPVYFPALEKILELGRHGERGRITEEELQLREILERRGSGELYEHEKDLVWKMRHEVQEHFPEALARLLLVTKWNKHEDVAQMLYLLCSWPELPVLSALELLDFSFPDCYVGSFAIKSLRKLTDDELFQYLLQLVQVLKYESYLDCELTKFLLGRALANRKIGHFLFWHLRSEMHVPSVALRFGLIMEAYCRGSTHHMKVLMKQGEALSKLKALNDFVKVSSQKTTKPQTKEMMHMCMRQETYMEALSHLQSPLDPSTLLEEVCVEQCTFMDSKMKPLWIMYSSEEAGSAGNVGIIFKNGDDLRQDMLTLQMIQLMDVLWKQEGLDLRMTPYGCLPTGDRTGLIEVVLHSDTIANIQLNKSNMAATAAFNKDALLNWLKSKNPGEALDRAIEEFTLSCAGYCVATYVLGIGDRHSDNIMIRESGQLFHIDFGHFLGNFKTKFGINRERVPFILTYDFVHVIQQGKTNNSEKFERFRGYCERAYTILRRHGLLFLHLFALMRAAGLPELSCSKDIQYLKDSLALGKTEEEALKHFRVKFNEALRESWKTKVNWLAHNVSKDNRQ
T1 sequence (P26450 whole entry partner): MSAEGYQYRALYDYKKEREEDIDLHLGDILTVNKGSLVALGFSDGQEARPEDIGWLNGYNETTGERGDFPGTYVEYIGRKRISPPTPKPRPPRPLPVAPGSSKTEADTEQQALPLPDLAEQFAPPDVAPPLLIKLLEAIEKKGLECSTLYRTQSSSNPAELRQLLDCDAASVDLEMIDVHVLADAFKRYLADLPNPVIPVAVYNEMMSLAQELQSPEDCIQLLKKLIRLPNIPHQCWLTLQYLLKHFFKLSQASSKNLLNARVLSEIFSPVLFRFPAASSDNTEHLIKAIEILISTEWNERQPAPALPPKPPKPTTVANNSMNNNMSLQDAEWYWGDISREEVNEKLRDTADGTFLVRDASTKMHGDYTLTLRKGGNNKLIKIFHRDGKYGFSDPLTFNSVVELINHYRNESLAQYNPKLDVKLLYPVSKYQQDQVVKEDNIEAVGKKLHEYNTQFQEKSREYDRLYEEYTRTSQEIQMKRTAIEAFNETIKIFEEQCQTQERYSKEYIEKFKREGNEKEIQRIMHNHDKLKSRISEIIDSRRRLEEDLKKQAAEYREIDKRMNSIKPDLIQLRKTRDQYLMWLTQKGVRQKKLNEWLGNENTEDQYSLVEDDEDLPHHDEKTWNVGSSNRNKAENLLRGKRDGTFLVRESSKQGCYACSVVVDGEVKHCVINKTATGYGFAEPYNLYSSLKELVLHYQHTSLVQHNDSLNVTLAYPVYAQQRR

| Compound | reduction of PIP3 production by immuno-precipitated p110δ (p110δ [1]) [%] | reduction in neutrophil attachment to and rolling on inflamed venular endothelium [2] [%] | mean plasma level of the compound [3] [µM] | inhibition of delta activity (p110δ [4]; 10 μM) [%] | inhibition of p110δ activity at the mean plasma level (p110δ [4]; 4.9±2.7 μM, Sadhu et al.) [%] | TNFα-induced expression of E-selectin (E-selectin) | reduction of capture/attachment of untreated neutrophils [5] [%] |
| --- | --- | --- | --- | --- | --- | --- | --- |
| Cc1ccccc1-n1c(Cn2cnc3c(N)ncnc32)nc2cccc(C)c2c1=O [IC87114] | > 90 | > 88 | 4.9 ± 2.7 | > 95 | > 85 |  |  |
| Cc1ccc(S(=O)(=O)/C=C/C#N)cc1 [Bay 11-7082] |  |  |  |  |  | abrogated | 100 |
